According to patent publication US11497751B2, “Modulators of Rho-associated protein kinase” (Redx Pharma PLC, priority 2018, dated 2022):
Structures can show the parent of a compound that is named as a salt.

Target: T1, N-terminal 6His-tagged ROCK2 catalytic domain 11-552 (Homo sapiens, UniProt O75116)
T1 construct: N-terminal 6His-tagged ROCK2 catalytic domain 11-552; 6His (N); purchased Dundee University, UK; host or cells: baculovirus expression system
Test: ROCK2 binding activity: ROCK2 inhibition, ADP-Glo Kinase Assay
Type: biochemical
Details: 1.25 nM ROCK2, 100 μM long S6 peptide, 20 μM ATP; 1 hour pre-incubation; read-out: ADP-Glo kinase activity assay ROCK2 Category
Method: Assay for ROCK2 inhibition was performed using the protein construct N-terminal 6His-tagged ROCK2 catalytic domain 11-552 (Dundee University, UK). Protein was purified from a baculovirus expression system. Long S6 peptide ([…]) was used as substrate. Kinase reactions were carried out in 15 μl volume in a 96-well plate (black, half area) using 1.25 nM constitutively active ROCK2 kinase, 100 μM long S6 peptide, 20 μM ATP and test compound in DMSO (or DMSO only for controls). The final concentration of DMSO was 1%. Assay buffer was 50 mM HEPES pH 7.5 supplemented with 0.2 mM EDTA, 10 mM magnesium acetate, 0.01% Tween-20, 1 mM DTT and 0.01% BSA. Test compounds were pre-incubated with ROCK2 kinase for 1 hour before addition of ATP and long S6 peptide. After incubation for a further 1 hour, the amount of ADP produced was measured using ADP-Glo Kinase Assay (Promega) as per manufacturer's instructions. The luminescence was measured on a PHERAstar FS (BMG Labtech). The concentration of test compound required to inhibit ADP production by 50% (the IC50) was calculated using a four-parameter logistic function with software by Dotmatics.
The category “+” refers to compounds with a ROCK2 IC50 value of >10 μM. The category “++” refers to compounds with a ROCK2 IC50 value of 10 to 3 μM. The category “+++” refers to compounds with a ROCK2 IC50 value of 3 to 0.3 μM. The category “++++” refers to compounds with a ROCK2 IC50 value of <0.3 μM.

T1 sequence (O75116 11-552): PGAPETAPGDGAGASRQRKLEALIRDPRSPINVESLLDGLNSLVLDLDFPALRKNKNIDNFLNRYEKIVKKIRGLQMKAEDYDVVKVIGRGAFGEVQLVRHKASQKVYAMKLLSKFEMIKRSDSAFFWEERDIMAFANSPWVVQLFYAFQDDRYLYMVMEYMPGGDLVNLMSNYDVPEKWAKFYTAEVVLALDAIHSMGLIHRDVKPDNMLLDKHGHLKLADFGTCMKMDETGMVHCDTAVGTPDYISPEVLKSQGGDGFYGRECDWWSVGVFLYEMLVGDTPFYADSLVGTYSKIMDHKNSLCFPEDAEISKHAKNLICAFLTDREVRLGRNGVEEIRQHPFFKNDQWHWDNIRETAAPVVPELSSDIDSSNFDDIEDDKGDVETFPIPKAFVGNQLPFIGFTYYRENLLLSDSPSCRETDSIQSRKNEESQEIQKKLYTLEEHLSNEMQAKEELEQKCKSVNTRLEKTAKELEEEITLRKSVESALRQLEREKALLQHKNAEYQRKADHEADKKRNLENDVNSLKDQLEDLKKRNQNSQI

## COc1cc(-c2nc(Nc3cnc4[nH]ncc4c3)n(C)n2)ccc1OCC(=O)NC(C)C [Example 433]
  IC50: 300 to 3000 nM

## COc1cc(-c2nc(Nc3ccc4[nH]ncc4c3)n(C)n2)ccc1C(=O)NCC(F)(F)F [Example 240, 4-[5-(1H-indazol-5-ylamino)-1-methyl-1,2,4-triazol-3-yl]-2-methoxy-N-(2,2,2-trifluoroethyl)benzamide]
  IC50: < 300 nM

## Cn1nc(-c2ccc(OC(F)(F)F)cc2)nc1Nc1ccc2[nH]ncc2c1Cl [Example 138]
  IC50: < 300 nM

## Cn1ccc(NC(=O)c2ccc(-c3nc(Nc4ccc5[nH]ncc5c4C4CC4)n(C)n3)cc2)n1 [Example 339]
  IC50: < 300 nM

## CC(C)NC(=O)CCn1cc(-c2nnc(Nc3ccc4[nH]ncc4c3)[nH]2)ccc1=O [Example 35]
  IC50: 300 to 3000 nM

## CN1CC(NC(=O)c2ccc(-c3nc(Nc4ccc5[nH]ncc5c4Cl)n(C)n3)cc2Cl)C1 [Example 259]
  IC50: 3000 to 10000 nM

## NCCOc1ccc(-c2nnc(Nc3ccc4[nH]ncc4c3)[nH]2)cc1 [Example 24]
  IC50: 300 to 3000 nM

## COCCNC(=O)COc1ccc(-c2nnc(Nc3ccc4[nH]ncc4c3)[nH]2)cc1 [Example 155]
  IC50: 300 to 3000 nM

## O=C(COc1ccc(-c2nnc(Nc3ccc4[nH]ncc4c3)[nH]2)cc1)NC1CCC1 [Example 161]
  IC50: < 300 nM

## CC(C)C(=O)NCCCOc1ccc(-c2nnc(Nc3ccc4[nH]ncc4c3)[nH]2)cc1 [Example 32]
  IC50: < 300 nM

## CCNC(=O)c1ccc(-c2nc(Nc3ccc4[nH]ncc4c3Cl)n(C)n2)c(Cl)c1 [Example 265]
  IC50: < 300 nM

## Cn1nc(-c2ccc(CN3CCOCC3)cc2)nc1Nc1ccc2[nH]ncc2c1Cl [Example 105]
  IC50: < 300 nM

## CCNC(=O)c1ccc(-c2nc(Nc3ccc4[nH]ncc4c3)n(C)n2)c(OC)c1 [Example 395]
  IC50: < 300 nM

## CCNC(=O)c1c(F)cc(-c2nc(Nc3ccc4[nH]ncc4c3Cl)n(C)n2)cc1F [Example 361]
  IC50: 300 to 3000 nM

## COc1cc(-c2nc(Nc3ccc4[nH]ncc4c3Cl)n(C)n2)ccc1OCC(=O)N[C@@H]1CCCC[C@H]1O [Example 213]
  IC50: < 300 nM

## Cn1nc(-c2ccc(CNS(C)(=O)=O)cc2)nc1Nc1ccc2[nH]ncc2c1C1CC1 [Example 385]
  IC50: < 300 nM

## CC(C)NC(=O)COc1ccc(-c2nc(Nc3ccc4[nH]ncc4c3)n(C)n2)c(F)c1 [Example 405]
  IC50: < 300 nM

## O=C(COc1ccc(-c2nnc(Nc3ccc4[nH]ncc4c3)[nH]2)cc1)N[C@H]1CCNC1 [Example 158]
  IC50: < 300 nM

## COc1cc(-c2nc(Nc3ccc4[nH]ncc4c3Cl)n(C)n2)ccc1C(=O)NC1CNCC1(F)F (stereo not shown) [Example 365]
  IC50: < 300 nM

## CC[C@@H](C)[C@H](NC(=O)c1ccc(-c2nc(Nc3ccc4[nH]ncc4c3C3CC3)n(C)n2)cc1)C(=O)OC [Example 304]
  IC50: < 300 nM

## Cn1nc(-c2ccc(C(=O)NCCC(F)(F)F)cc2)nc1Nc1ccc2[nH]ncc2c1C1CC1 [Example 285]
  IC50: < 300 nM

## CC(C)c1c(Nc2nc(-c3ccc(C(=O)NCC(F)(F)F)cc3)nn2C)ccc2[nH]ncc12 [Example 425]
  IC50: 300 to 3000 nM

## CCNC(=O)c1ccc(-c2nc(Nc3ccc4[nH]ncc4c3Cl)n(C)n2)cc1F [Example 43, 4-[5-[(4-chloro-1H-indazol-5-yl)amino]-1-methyl-1,2,4-triazol-3-yl]-N-ethyl-2-fluoro-benzamide]
  IC50: < 300 nM

## COC(=O)COc1ccc(-c2nnc(Nc3ccc4[nH]ncc4c3)[nH]2)cc1 [Example 17]
  IC50: < 300 nM

## COc1cc(-c2nc(Nc3ccc4[nH]ncc4c3)n(C)n2)ccc1COC(=O)NC1CCNC1 (stereo not shown) [Example 231, [4-[5-(1H-indazol-5-ylamino)-1-methyl-1,2,4-triazol-3-yl]-2-methoxy-phenyl]methyl N-pyrrolidin-3-ylcarbamate]
  IC50: < 300 nM

## COc1cc(-c2nc(Nc3ccc4[nH]ncc4c3)n(CCN3CCCCC3)n2)ccc1OCC(=O)NC(C)C [Example 445]
  IC50: < 300 nM

## COc1ccc(-c2nnc(Nc3ccc4[nH]ncc4c3)[nH]2)cc1 [Example 1, N-[5-(4-Methoxyphenyl)-4H-1,2,4-triazol-3-yl]-1H-indazol-5-amine dihydrochloride]
  IC50: 300 to 3000 nM

## CC(C)NC(=O)COc1cc(F)c(-c2nc(Nc3ccc4[nH]ncc4c3Cl)n(C)n2)cc1F [Example 369]
  IC50: < 300 nM

## CC(C)NC(=O)COc1ccc(-c2nc(Nc3ccc4[nH]ncc4c3Cl)n(C)n2)c(C(F)(F)F)c1 [Example 475]
  IC50: < 300 nM

## Cn1nc(-c2ccc(N)nc2)nc1Nc1ccc2[nH]ncc2c1Cl [Example 70]
  IC50: 300 to 3000 nM

## Cn1nc(-c2ccc(C(=O)Nc3cccnc3)cc2)nc1Nc1ccc2[nH]ncc2c1Cl [Example 260]
  IC50: < 300 nM

## CCc1c(Nc2nc(-c3ccc(C(=O)NCC(F)(F)F)c(OC)c3)nn2C)ccc2[nH]ncc12 [Example 316]
  IC50: < 300 nM

## Cn1nc(-c2cccc(N3CCOCC3)c2)nc1Nc1ccc2[nH]ncc2c1Cl [Example 69]
  IC50: < 300 nM

## Cn1cc(NC(=O)c2ccc(-c3nc(Nc4ccc5[nH]ncc5c4C4CC4)n(C)n3)cc2)cn1 [Example 300]
  IC50: < 300 nM

## Cn1nc(-c2ccccc2N)nc1Nc1ccc2[nH]ncc2c1Cl [Example 123]
  IC50: 300 to 3000 nM

## Cn1nc(-c2ccc(C(=O)NC3(CO)CCCC3)cc2)nc1Nc1ccc2[nH]ncc2c1C1CC1 [Example 308]
  IC50: < 300 nM

## COc1cc(-c2nc(Nc3ccc4[nH]ncc4c3Cl)n(C)n2)ccc1OCC(=O)NCCN(C)C [Example 64]
  IC50: < 300 nM

## CCc1c(Nc2nc(-c3ccc(C(=O)NCC(F)(F)F)c(C)c3)nn2C)ccc2[nH]ncc12 [Example 424]
  IC50: < 300 nM

## Cn1nc(-c2cncc(O)c2)nc1Nc1ccc2[nH]ncc2c1Cl [Example 129]
  IC50: 300 to 3000 nM

## Cn1nc(-c2cccc(C(=O)NCC(F)(F)F)c2)nc1Nc1ccc2[nH]ncc2c1Cl [Example 268]
  IC50: < 300 nM

## CC(C)NC(=O)CN1CCOc2cc(-c3nc(Nc4ccc5[nH]ncc5c4Cl)n(C)n3)ccc21 [Example 58]
  IC50: < 300 nM

## Cn1nc(-c2ccc(CN)c(F)c2)nc1Nc1ccc2[nH]ncc2c1Cl [Example 128]
  IC50: < 300 nM

## Cn1nc(-c2ccc(C(=O)NC(CO)C(F)(F)F)cc2)nc1Nc1ccc2[nH]ncc2c1C1CC1 (stereo not shown) [Example 311]
  IC50: < 300 nM

## CC(C)NC(=O)COc1c(F)cc(-c2nc(Nc3ccc4[nH]ncc4c3Cl)n(C)n2)cc1F [Example 368]
  IC50: < 300 nM

## CCNC(=O)c1ccc(-c2nc(Nc3ccc4[nH]ncc4c3Cl)n(C)n2)c(C(F)(F)F)c1 [Example 357]
  IC50: < 300 nM

## COCCn1nc(-c2ccc(C(=O)NCC(F)(F)F)c(C)c2)nc1Nc1ccc2[nH]ncc2c1C [Example 454]
  IC50: < 300 nM

## CC(C)NC(=O)c1ccc(-c2nc(Nc3ccc4[nH]ncc4c3Cl)n(C)n2)cc1 [Example 166, 4-[5-[(4-chloro-1H-indazol-5-yl)amino]-1-methyl-1,2,4-triazol-3-yl]-N-isopropyl-benzamide]
  IC50: < 300 nM

## CCNC(=O)c1ccc(-c2nc(Nc3ccc4[nH]ncc4c3CC)n(C)n2)cc1OC [Example 313]
  IC50: < 300 nM

## COc1cc(-c2nc(Nc3ccc4[nH]ncc4c3Cl)n(C)n2)ccc1C(=O)N1CC(CO)(CO)C1 [Example 173]
  IC50: 3000 to 10000 nM

## CC(C)NC(=O)C(C)Oc1ccc(-c2nnc(Nc3ccc4[nH]ncc4c3)[nH]2)cc1 (stereo not shown) [Example 18]
  IC50: 300 to 3000 nM

## Cn1nc(-c2ccc(OCCn3ccc(=O)cc3)cc2)nc1Nc1ccc2[nH]ncc2c1Cl [Example 122]
  IC50: < 300 nM

## O=C(NCCOc1ccc(-c2nnc(Nc3ccc4[nH]ncc4c3)[nH]2)cc1)N1CCCC1 [Example 225]
  IC50: 300 to 3000 nM

## CNC(=O)c1cccc(-c2nc(Nc3ccc4[nH]ncc4c3Cl)n(C)n2)c1 [Example 135]
  IC50: < 300 nM

## CC(C)NC(=O)CCOc1ccc(-c2nnc(Nc3ccc4[nH]ncc4c3)[nH]2)cc1 [Example 21]
  IC50: 300 to 3000 nM

## O=C(O)COc1ccc(-c2nnc(Nc3ccc4[nH]ncc4c3)[nH]2)cc1 [Example 31]
  IC50: 300 to 3000 nM

## CCNC1(COc2ccc(-c3nnc(Nc4ccc5[nH]ncc5c4)[nH]3)cc2)COC1 [Example 229, N-[5-[4-[[3-(ethylamino)oxetan-3-yl]methoxy]phenyl]-4H-1,2,4-triazol-3-yl]-1H-indazol-5-amine]
  IC50: 300 to 3000 nM

## CC(C)NS(=O)(=O)COc1ccc(-c2n[nH]c(Nc3ccc4[nH]ncc4c3)n2)cc1 [Example 226, 1-[4-[5-(1H-indazol-5-ylamino)-4H-1,2,4-triazol-3-yl]phenoxy]-N-isopropyl-methanesulfonamide]
  IC50: < 300 nM

## CC(C)NC(=O)COc1ccc(-c2nnc(Nc3ccc4[nH]ncc4c3)n2-c2ccccn2)cc1 [Example 148]
  IC50: < 300 nM

## CNCCn1nc(-c2ccc(C(=O)NCC(F)(F)F)cc2)nc1Nc1ccc2[nH]ncc2c1C1CC1 [Example 443]
  IC50: < 300 nM

## O=C(COc1ccc(-c2nnc(Nc3ccc4[nH]ncc4c3)[nH]2)cc1)NC1CCOC1 (stereo not shown) [Example 159]
  IC50: 300 to 3000 nM

## COc1cc(-c2nc(Nc3ccc4[nH]ncc4c3Cl)n(-c3ccncc3)n2)ccc1OCC(=O)NC(C)C [Example 152]
  IC50: < 300 nM
